According to article PMC5363373, “Zirconium tetraazamacrocycle complexes display extraordinary stability and provide a new strategy for zirconium-89-based radiopharmaceutical development” (Chemical Science, 2016):

Key:
[1] = In vitro EDTA challenge study; format: physicochemical
Procedure, shortened: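 Each 89Zr-labeled complex incubated at 37 °C for up to 7 days with EDTA (10, 50 or 100 mM; pH 5 or 7) at 1:100, 1:500 and 1:1000 ligand/EDTA ratios, n=4. Intact fraction sampled from 30 min to 7 d by radio-TLC (0.1 M EDTA pH 5 mobile phase) and gamma counting.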

[2] = In vitro metal competition study; format: physicochemical; conditions: PBS pH 7.4, 37 C
Procedure, shortened: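 Each 89Zr-labeled complex (0.1 mM stock) in PBS, pH 7.4, was mixed with 1 mM solutions of Fe(III), Co(II), Zn(II), Cu(II), Mg(II), Ga(III) or Gd(III) salts. Mixtures were incubated at 37 °C for 7 days. 89Zr release was tracked by radio-TLC at 2 h, 1 d, 4 d and 7 d, in triplicate.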

[3] = In vitro serum stability (radio-ITLC); format: in vitro ADME; conditions: 37 C, after 7 days
Procedure, shortened: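 89Zr-labeled complexes (70 μCi, 2.59 MBq) incubated in human serum at 37 °C for 7 days (n=4). Analyzed daily by radio-ITLC on ITLC-SA strips with 0.1 M EDTA (pH 5) mobile phase and gamma counting; SEC in PBS after 7 days.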

Biodistribution studies = format: in vivo, female NIH Swiss mice; conditions: mice
Procedure, shortened: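 Female NIH Swiss mice (6-8 wk, n=6) received 89Zr-labeled complex, 0.55 MBq (15 μCi)/mouse i.v. via tail vein; organs excised at 2, 4, 24, 48, 72 h, weighed and gamma-counted. %ID/g and %ID/organ derived against a weighed, counted standard; mean±SD, two-tailed unpaired t test.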

[4] = intravenous, 72 h post-injection

CC(=O)N1CCCCCNC(=O)CCC(=O)N2CCCCCNC(=O)CCC(=O)N(CCCCCN)[O][89Zr+]([O]1)[O]2 [89Zr-DFO, reference compound]
% Intact of 89Zr-complexes ([1]; EDTA 100-fold, pH 5.0, 37 C, 30 min): 93.0 ± 0.7%
% Intact of 89Zr-complexes ([1]; EDTA 100-fold, pH 5.0, 37 C, 1 h): 85.5 ± 0.9%
% Intact of 89Zr-complexes ([1]; EDTA 100-fold, pH 5.0, 37 C, 3 h): 59.6 ± 0.8%
% Intact of 89Zr-complexes ([1]; EDTA 100-fold, pH 5.0, 37 C, 6 h): 29.4 ± 0.7%
% Intact of 89Zr-complexes ([1]; EDTA 100-fold, pH 5.0, 37 C, 1 d): 6.6 ± 0.3%
% Intact of 89Zr-complexes ([1]; EDTA 100-fold, pH 5.0, 37 C, 3 d): 5.4 ± 0.3%
% Intact of 89Zr-complexes ([1]; EDTA 100-fold, pH 5.0, 37 C, 5 d): 4.4 ± 0.2%
% Intact of 89Zr-complexes ([1]; EDTA 100-fold, pH 5.0, 37 C, 7 d): 3.6 ± 0.1%
% Intact of 89Zr-complexes ([1]; EDTA 100-fold, pH 7.0, 37 C, 30 min): 99.0 ± 0.4%
% Intact of 89Zr-complexes ([1]; EDTA 100-fold, pH 7.0, 37 C, 1 h): 96.6 ± 1.1%
% Intact of 89Zr-complexes ([1]; EDTA 100-fold, pH 7.0, 37 C, 3 h): 90.3 ± 0.8%
% Intact of 89Zr-complexes ([1]; EDTA 100-fold, pH 7.0, 37 C, 6 h): 89.4 ± 0.2%
% Intact of 89Zr-complexes ([1]; EDTA 100-fold, pH 7.0, 37 C, 1 d): 88.6 ± 0.2%
% Intact of 89Zr-complexes ([1]; EDTA 100-fold, pH 7.0, 37 C, 3 d): 87.2 ± 0.6%
% Intact of 89Zr-complexes ([1]; EDTA 100-fold, pH 7.0, 37 C, 5 d): 86.6 ± 0.3%
% Intact of 89Zr-complexes ([1]; EDTA 100-fold, pH 7.0, 37 C, 7 d): 83.9 ± 0.5%
% Intact of 89Zr-complexes ([1]; EDTA 500-fold, pH 5.0, 37 C, 30 min): 60.9 ± 1.0%
% Intact of 89Zr-complexes ([1]; EDTA 500-fold, pH 5.0, 37 C, 1 h): 33.9 ± 1.2%
% Intact of 89Zr-complexes ([1]; EDTA 500-fold, pH 5.0, 37 C, 3 h): 3.9 ± 0.4%
% Intact of 89Zr-complexes ([1]; EDTA 500-fold, pH 5.0, 37 C, 6 h): 0%
% Intact of 89Zr-complexes ([1]; EDTA 500-fold, pH 7.0, 37 C, 30 min): 90.3 ± 0.7%
% Intact of 89Zr-complexes ([1]; EDTA 500-fold, pH 7.0, 37 C, 1 h): 81.1 ± 1.1%
% Intact of 89Zr-complexes ([1]; EDTA 500-fold, pH 7.0, 37 C, 3 h): 58.6 ± 0.3%
% Intact of 89Zr-complexes ([1]; EDTA 500-fold, pH 7.0, 37 C, 6 h): 42.7 ± 1.2%
% Intact of 89Zr-complexes ([1]; EDTA 500-fold, pH 7.0, 37 C, 1 d): 36.2 ± 0.7%
% Intact of 89Zr-complexes ([1]; EDTA 500-fold, pH 7.0, 37 C, 3 d): 31.8 ± 1.1%
% Intact of 89Zr-complexes ([1]; EDTA 500-fold, pH 7.0, 37 C, 5 d): 30.4 ± 0.9%
% Intact of 89Zr-complexes ([1]; EDTA 500-fold, pH 7.0, 37 C, 7 d): 28.5 ± 0.4%
% Intact of 89Zr-complexes ([1]; EDTA 1000-fold, pH 5.0, 37 C, 30 min): 37.7 ± 1.1%
% Intact of 89Zr-complexes ([1]; EDTA 1000-fold, pH 5.0, 37 C, 1 h): 14.6 ± 0.7%
% Intact of 89Zr-complexes ([1]; EDTA 1000-fold, pH 5.0, 37 C, 3 h): 0%
% Intact of 89Zr-complexes ([1]; EDTA 1000-fold, pH 7.0, 37 C, 30 min): 85.6 ± 1.1%
% Intact of 89Zr-complexes ([1]; EDTA 1000-fold, pH 7.0, 37 C, 1 h): 68.3 ± 1.2%
% Intact of 89Zr-complexes ([1]; EDTA 1000-fold, pH 7.0, 37 C, 3 h): 45.4 ± 0.7%
% Intact of 89Zr-complexes ([1]; EDTA 1000-fold, pH 7.0, 37 C, 6 h): 32.9 ± 0.5%
% Intact of 89Zr-complexes ([1]; EDTA 1000-fold, pH 7.0, 37 C, 1 d): 28.1 ± 0.7%
% Intact of 89Zr-complexes ([1]; EDTA 1000-fold, pH 7.0, 37 C, 3 d): 24.5 ± 0.8%
% Intact of 89Zr-complexes ([1]; EDTA 1000-fold, pH 7.0, 37 C, 5 d): 21.4 ± 1.2%
% Intact of 89Zr-complexes ([1]; EDTA 1000-fold, pH 7.0, 37 C, 7 d): 20.3 ± 0.5%
Loss of metal ions in EDTA challenge ([1]; after 3 h incubation, 1000-fold excess of EDTA at pH 5): completely lost metal ions
% Intact of 89Zr-complexes ([2]; Co2+, 2 h): 99.2 ± 0.2%
% Intact of 89Zr-complexes ([2]; Co2+, 1 d): 98.3 ± 0.4%
% Intact of 89Zr-complexes ([2]; Co2+, 4 d): 98.1 ± 0.3%
% Intact of 89Zr-complexes ([2]; Co2+, 7 d): 95.4 ± 0.9%
% Intact of 89Zr-complexes ([2]; Cu2+, 2 h): 98.9 ± 0.5%
% Intact of 89Zr-complexes ([2]; Cu2+, 1 d): 98.6 ± 0.4%
% Intact of 89Zr-complexes ([2]; Cu2+, 4 d): 97.3 ± 0.7%
% Intact of 89Zr-complexes ([2]; Cu2+, 7 d): 96.0 ± 1.0%
% Intact of 89Zr-complexes ([2]; Fe3+, 2 h): 96.5 ± 0.2%
% Intact of 89Zr-complexes ([2]; Fe3+, 1 d): 76.1 ± 1.3%
% Intact of 89Zr-complexes ([2]; Fe3+, 4 d): 53.2 ± 3.8%
% Intact of 89Zr-complexes ([2]; Fe3+, 7 d): 33.9 ± 1.5%
% Intact of 89Zr-complexes ([2]; Fe3+, 7 d, listed as 89Zr–DFO): 33.9%
% Intact of 89Zr-complexes ([2]; Ga3+, 2 h): 99.3 ± 0.2%
% Intact of 89Zr-complexes ([2]; Ga3+, 1 d): 93.4 ± 2.6%
% Intact of 89Zr-complexes ([2]; Ga3+, 4 d): 81.1 ± 0.5%
% Intact of 89Zr-complexes ([2]; Ga3+, 7 d): 72.6 ± 1.3%
% Intact of 89Zr-complexes ([2]; Ga3+, 7 d, listed as 89Zr–DFO): 72.6%
% Intact of 89Zr-complexes ([2]; Gd3+, 2 h): 99.4 ± 0.3%
% Intact of 89Zr-complexes ([2]; Gd3+, 1 d): 98.8 ± 0.1%
% Intact of 89Zr-complexes ([2]; Gd3+, 4 d): 98.4 ± 0.3%
% Intact of 89Zr-complexes ([2]; Gd3+, 7 d): 96.8 ± 0.2%
% Intact of 89Zr-complexes ([2]; Mg2+, 2 h): 99.3 ± 0.1%
% Intact of 89Zr-complexes ([2]; Mg2+, 1 d): 98.6 ± 0.5%
% Intact of 89Zr-complexes ([2]; Mg2+, 4 d): 97.6 ± 0.8%
% Intact of 89Zr-complexes ([2]; Mg2+, 7 d): 96.8 ± 1.2%
% Intact of 89Zr-complexes ([2]; Zn2+, 2 h): 99.5 ± 0.1%
% Intact of 89Zr-complexes ([2]; Zn2+, 1 d): 98.8 ± 0.3%
% Intact of 89Zr-complexes ([2]; Zn2+, 4 d): 97.7 ± 0.6%
% Intact of 89Zr-complexes ([2]; Zn2+, 7 d): 95.9 ± 0.7%
Radio-ITLC peak of complex in human serum [3]: 100%
Radioactivity in blood (Biodistribution studies; [4]): 0.0003 ± 0.0005 % ID per g
Radioactivity in bone (Biodistribution studies; [4]): 0.079 ± 0.014 % ID per g
Radioactivity in kidney (Biodistribution studies; [4]): 0.69 ± 0.098 % ID per g
Radioactivity in liver (Biodistribution studies; [4]): 0.066 ± 0.009 % ID per g
Radioactivity retention in bone tissue over time (Biodistribution studies; time points up to 72 h): increases over time
